Data as given in publication PMC7496931, “Activation of Sirtuin 2 Inhibitors Employing Photoswitchable Geometry and Aqueous Solubility” (Chemmedchem, 2020).

test: Reductive stability in the presence of glutathione (HPLC); type: physicochemical; settings: GSH 5 mM, 24 h, ambient temperature, HPLC analysis
Procedure: Reductive stability of 15 c, 15 f and 20 a in the presence of the cellular reductant glutathione (5 mM) was confirmed by HPLC analysis (Figure S5, Table S2). For the cell‐based activity assay, we illuminated the compounds solved in DMSO with UV light (365 nm) prior to incubation with the cells. […] As expected, 15 c and 15 f increased the levels of acetylated lysines H3K18 and H3K56, which are both affirmed substrates of Sirt2. In addition, we found H4K8 hyperacetylation even though this site is usually not affected by sirtuin catalysed deacetylation, indicating a further mode of action. […] In Figure 6, we show the relative results, whereby the acetylation product was related to total target protein and to the vehicle control. Again, we found an increase in acetylated histones induced by 15 c and 15 f which proves activity of these two compounds in living cells.
Glutathione (GSH) is able to reduce certain azobenzenes yielding the respective hydrazines.
Therefore, we determined the reductive stability of 15c, 15f and 20a prior to examination of the biological activity in a cell-based assay. […]
Table S2: Relative percentages (%) of GSH and the respective photoisomers extracted from the HPLC analysis. Samples were analyzed right after addition of GSH (0 h) and after 24 h of incubation at ambient temperature. […]
Fluorescence-Based Activity Assay (ZMAL-Assay)
The influence of the synthesized compounds on the deacetylase activity of the class I sirtuins Sirt1–3 was determined in a homogenous fluorescence-based enzyme assay, using the artificial substrate Z-(Ac)Lys-AMC (ZMAL). […]
The latter is subsequently cleaved by tryptic digestion, releasing 7-amino-4-methylcoumarin (AMC), excitation of which leads to a fluorescent read out (λex=390 nm; λem=460 nm). […]
contribute to the fluorescence signal. Therefore, the fluorescence intensity is proportional to the activity of the respective sirtuin.
After subtraction of the blank fluorescence signal (without enzyme) from the signal of the respective probe, the residual signal intensity is related to a 100 % conversion control (AMC),

Reductive stability in the presence of glutathione, confirmed:
CC(C)(C)OC(=O)NCc1ccc(/N=N/c2cncc(C(N)=O)c2)cc1 [15 c]
CCCCCCCCCC(=O)NCc1ccc(/N=N/c2cncc(C(N)=O)c2)cc1 [15 f]
NC(=O)c1cncc(OCc2cccc(/N=N/c3ccc(OCc4ccccc4)cc3)c2)c1 [20 a]
